This passage reports AC50 results from ChEMBL document CHEMBL5291721, “A preclinical secondary pharmacology resource illuminates target-adverse drug reaction associations of marketed drugs” (Nat Commun, 2023).

Some targets named below: Vasopressin V2 receptor (Homo sapiens, UniProt P30518); Cannabinoid receptor 1 (Homo sapiens, UniProt P21554); Melanocortin receptor 3 (Homo sapiens, UniProt P41968); Melanocortin receptor 4 (Homo sapiens, UniProt P32245); Motilin receptor (Homo sapiens, UniProt O43193).
The target in assay [1] is Gamma-aminobutyric acid receptor subunit alpha-1/alpha-2/beta-2/gamma-2 (Homo sapiens, UniProt P14867+P18507+P47869+P47870). Format: protein-complex assay.
Chain of Gamma-aminobutyric acid receptor subunit alpha-1/alpha-2/beta-2/gamma-2 (P14867 whole entry): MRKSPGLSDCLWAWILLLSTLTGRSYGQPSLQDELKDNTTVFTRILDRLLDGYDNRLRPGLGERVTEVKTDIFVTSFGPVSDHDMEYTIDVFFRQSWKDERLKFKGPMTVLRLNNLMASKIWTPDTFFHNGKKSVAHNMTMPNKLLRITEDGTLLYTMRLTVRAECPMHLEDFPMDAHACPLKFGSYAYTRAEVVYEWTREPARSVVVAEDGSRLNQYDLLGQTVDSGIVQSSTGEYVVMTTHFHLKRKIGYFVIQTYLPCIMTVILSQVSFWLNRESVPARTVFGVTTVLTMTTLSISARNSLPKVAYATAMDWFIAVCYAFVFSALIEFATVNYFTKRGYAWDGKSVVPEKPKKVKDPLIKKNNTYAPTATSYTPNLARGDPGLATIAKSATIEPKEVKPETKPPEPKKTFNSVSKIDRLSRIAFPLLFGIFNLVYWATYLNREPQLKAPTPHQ
Chain of Gamma-aminobutyric acid receptor subunit alpha-1/alpha-2/beta-2/gamma-2 (P47870 whole entry): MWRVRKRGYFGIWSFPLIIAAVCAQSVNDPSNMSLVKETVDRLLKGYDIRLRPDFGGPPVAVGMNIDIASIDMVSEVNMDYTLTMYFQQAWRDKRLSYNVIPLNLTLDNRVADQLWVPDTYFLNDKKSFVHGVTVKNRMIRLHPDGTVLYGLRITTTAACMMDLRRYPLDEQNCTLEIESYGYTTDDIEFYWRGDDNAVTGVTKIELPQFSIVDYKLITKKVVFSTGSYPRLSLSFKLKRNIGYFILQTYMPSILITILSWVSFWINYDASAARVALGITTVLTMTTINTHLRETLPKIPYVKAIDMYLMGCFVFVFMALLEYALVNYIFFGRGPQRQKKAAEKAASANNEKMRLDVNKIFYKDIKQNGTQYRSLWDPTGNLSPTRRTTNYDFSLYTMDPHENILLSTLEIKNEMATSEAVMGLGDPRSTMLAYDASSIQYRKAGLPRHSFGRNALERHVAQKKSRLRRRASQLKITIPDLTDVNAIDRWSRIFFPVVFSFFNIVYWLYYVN
Chain of Gamma-aminobutyric acid receptor subunit alpha-1/alpha-2/beta-2/gamma-2 (P18507 whole entry): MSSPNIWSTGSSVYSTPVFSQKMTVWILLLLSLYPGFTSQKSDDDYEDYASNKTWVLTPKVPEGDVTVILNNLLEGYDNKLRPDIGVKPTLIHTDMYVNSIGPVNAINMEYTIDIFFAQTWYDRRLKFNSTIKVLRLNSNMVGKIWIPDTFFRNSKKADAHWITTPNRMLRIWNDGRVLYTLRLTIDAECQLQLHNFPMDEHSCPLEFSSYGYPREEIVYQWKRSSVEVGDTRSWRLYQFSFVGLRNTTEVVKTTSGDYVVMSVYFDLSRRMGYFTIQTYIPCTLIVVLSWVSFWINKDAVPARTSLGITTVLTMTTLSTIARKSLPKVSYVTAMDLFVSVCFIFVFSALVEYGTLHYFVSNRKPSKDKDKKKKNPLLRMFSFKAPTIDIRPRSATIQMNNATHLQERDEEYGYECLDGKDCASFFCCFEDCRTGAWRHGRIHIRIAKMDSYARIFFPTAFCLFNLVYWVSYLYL
Chain of Gamma-aminobutyric acid receptor subunit alpha-1/alpha-2/beta-2/gamma-2 (P47869 whole entry): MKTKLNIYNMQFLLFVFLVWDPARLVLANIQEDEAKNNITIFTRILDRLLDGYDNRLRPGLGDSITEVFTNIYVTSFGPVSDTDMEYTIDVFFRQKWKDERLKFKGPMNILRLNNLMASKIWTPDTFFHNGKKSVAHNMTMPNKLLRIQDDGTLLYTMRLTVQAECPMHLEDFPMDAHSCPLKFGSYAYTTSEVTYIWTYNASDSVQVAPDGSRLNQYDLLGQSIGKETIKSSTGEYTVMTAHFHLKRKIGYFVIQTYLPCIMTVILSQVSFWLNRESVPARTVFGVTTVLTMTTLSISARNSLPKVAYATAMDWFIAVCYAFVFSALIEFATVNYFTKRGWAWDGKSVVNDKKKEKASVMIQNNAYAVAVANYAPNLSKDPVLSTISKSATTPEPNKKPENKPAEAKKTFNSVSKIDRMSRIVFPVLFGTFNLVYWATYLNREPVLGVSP
Assay [2] has as its target Vascular endothelial growth factor receptor 2 (Homo sapiens, UniProt P35968). Format: functional.
The target in a further assay is T1, Adenosine receptor A1 (Homo sapiens, UniProt P30542).
T1 sequence (P30542 whole entry): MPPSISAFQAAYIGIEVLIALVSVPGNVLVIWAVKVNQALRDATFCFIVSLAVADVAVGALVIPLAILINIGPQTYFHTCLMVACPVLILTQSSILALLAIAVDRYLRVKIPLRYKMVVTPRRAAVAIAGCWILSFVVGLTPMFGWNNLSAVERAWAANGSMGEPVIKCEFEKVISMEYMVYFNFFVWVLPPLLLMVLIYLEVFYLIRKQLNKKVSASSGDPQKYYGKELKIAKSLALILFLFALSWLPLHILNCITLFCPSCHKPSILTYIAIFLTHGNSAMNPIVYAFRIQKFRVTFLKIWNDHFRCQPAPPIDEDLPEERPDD

Assay [3] has as its target T2, Type-1 angiotensin II receptor (Homo sapiens, UniProt P30556).
T2 sequence (P30556 whole entry): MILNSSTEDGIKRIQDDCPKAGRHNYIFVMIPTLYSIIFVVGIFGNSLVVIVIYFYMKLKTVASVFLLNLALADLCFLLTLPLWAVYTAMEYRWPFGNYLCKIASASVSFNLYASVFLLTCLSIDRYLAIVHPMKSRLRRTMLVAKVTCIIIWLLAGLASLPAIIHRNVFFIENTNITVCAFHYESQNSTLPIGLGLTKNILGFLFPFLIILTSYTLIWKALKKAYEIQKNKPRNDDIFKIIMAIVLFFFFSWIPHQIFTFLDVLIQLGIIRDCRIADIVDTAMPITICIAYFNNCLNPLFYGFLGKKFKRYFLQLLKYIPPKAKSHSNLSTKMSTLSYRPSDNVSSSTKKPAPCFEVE

In a further assay the target is D(1A) dopamine receptor (Homo sapiens, UniProt P21728). Format: functional, cell-based.
The target of the next assay is T3, Endothelin-1 receptor (Homo sapiens, UniProt P25101).
T3 sequence (P25101 whole entry): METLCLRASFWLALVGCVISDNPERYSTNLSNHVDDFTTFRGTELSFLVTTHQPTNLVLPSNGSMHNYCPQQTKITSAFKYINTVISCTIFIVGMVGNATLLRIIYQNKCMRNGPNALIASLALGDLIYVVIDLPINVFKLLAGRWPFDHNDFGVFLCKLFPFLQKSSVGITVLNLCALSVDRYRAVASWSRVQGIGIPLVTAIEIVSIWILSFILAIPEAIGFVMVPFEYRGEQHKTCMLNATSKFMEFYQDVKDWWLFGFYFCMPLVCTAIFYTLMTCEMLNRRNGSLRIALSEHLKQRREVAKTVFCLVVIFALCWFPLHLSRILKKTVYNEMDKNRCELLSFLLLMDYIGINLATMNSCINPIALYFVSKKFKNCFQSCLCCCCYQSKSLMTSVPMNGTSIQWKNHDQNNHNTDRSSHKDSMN

Assay [4] addresses Glutamate receptor ionotropic, NMDA 1 (Rattus norvegicus, UniProt P35439).
Another assay has as its target Histamine H2 receptor (Homo sapiens, UniProt P25021). The assay is classed as functional, cell-based.
The target in assay [5] is T4, 5-hydroxytryptamine receptor 3A (Homo sapiens, UniProt P46098).
T4 sequence (P46098 whole entry): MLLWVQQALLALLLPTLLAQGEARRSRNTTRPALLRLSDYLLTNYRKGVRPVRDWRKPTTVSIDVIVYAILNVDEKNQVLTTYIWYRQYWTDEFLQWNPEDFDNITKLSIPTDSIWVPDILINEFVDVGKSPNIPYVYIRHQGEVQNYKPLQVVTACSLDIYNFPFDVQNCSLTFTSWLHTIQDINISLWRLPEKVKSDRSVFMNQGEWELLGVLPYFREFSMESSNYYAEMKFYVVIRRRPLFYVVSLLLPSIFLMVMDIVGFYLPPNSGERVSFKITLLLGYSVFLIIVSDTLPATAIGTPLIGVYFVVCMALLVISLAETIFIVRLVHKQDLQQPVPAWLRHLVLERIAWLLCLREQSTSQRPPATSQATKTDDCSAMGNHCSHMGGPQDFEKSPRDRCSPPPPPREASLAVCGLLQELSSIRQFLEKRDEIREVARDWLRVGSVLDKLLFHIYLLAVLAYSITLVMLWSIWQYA
The assay is classed as functional.

Assay [6] has as its target Delta-type opioid receptor (Homo sapiens, UniProt P41143).
In assay [7] the target is Kappa-type opioid receptor (Homo sapiens, UniProt P41145).
Chain of Kappa-type opioid receptor (P41145 whole entry): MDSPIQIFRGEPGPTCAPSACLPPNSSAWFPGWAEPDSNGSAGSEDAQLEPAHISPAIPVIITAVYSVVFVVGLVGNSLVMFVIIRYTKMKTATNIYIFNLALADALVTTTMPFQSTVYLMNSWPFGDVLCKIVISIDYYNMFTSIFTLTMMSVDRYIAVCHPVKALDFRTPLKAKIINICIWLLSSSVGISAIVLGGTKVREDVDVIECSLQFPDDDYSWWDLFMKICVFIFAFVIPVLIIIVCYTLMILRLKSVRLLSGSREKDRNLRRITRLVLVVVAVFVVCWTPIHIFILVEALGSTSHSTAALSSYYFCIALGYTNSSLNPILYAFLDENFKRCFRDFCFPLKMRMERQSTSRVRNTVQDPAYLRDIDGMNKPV
For assay [8], the target named is T5, Prostaglandin G/H synthase 1 (Rattus norvegicus, UniProt Q63921).
T5 sequence (Q63921 whole entry): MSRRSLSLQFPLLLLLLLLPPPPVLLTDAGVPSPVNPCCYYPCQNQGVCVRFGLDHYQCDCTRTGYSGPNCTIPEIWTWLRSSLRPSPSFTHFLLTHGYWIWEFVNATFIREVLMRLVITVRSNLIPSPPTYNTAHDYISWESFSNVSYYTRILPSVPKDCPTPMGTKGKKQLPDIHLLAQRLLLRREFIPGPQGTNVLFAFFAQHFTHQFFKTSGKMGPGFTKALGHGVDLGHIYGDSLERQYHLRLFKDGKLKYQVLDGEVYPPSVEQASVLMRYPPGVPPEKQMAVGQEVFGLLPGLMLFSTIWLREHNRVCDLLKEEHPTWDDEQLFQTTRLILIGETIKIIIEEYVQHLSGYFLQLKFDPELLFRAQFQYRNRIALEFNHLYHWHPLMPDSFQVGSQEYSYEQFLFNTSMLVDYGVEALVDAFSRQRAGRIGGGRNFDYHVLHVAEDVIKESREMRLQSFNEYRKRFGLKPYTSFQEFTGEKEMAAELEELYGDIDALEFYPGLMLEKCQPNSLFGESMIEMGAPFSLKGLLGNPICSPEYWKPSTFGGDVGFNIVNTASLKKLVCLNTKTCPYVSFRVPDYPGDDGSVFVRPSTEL
Format: functional.

A word on the AC50: it is the concentration at which the activity in the assay is half-maximal. Read a high AC50 as activity only at high concentration.
Note: assay procedure not described here.

Chain of Vascular endothelial growth factor receptor 2 (P35968 whole entry): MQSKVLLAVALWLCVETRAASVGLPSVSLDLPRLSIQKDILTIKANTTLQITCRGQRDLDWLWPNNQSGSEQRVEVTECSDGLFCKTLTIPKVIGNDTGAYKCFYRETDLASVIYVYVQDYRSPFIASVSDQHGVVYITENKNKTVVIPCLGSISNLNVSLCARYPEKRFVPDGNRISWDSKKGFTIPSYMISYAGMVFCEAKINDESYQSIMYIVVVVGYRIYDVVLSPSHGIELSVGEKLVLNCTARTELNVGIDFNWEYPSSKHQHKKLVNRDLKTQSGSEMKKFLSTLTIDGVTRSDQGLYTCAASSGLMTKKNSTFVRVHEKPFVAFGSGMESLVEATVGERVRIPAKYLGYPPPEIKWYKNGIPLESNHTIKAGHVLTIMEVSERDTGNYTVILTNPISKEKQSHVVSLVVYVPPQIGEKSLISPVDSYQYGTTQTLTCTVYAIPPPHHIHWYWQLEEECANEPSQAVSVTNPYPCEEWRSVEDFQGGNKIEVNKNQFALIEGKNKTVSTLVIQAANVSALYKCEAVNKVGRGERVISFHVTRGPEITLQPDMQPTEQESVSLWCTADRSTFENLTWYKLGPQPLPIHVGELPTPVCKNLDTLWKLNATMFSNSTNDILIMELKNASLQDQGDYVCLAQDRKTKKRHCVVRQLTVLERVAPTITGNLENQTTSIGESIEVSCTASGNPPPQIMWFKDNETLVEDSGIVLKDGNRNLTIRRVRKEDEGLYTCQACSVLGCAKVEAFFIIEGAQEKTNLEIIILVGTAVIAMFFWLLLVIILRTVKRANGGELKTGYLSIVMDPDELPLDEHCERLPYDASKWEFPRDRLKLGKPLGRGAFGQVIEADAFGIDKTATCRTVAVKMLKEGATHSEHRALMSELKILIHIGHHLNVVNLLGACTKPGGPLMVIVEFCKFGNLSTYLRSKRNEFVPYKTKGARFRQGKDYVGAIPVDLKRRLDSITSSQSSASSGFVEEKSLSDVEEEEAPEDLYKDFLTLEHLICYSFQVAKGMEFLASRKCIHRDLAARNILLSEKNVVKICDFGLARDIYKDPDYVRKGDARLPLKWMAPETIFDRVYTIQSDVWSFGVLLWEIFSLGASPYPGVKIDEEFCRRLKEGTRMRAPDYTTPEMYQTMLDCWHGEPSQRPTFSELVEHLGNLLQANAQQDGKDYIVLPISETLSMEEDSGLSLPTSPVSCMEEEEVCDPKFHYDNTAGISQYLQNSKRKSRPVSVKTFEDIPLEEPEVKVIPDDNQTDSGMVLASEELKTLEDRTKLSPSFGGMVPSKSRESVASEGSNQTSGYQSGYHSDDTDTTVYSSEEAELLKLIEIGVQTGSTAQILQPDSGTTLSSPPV
Chain of Melanocortin receptor 3 (P41968 whole entry): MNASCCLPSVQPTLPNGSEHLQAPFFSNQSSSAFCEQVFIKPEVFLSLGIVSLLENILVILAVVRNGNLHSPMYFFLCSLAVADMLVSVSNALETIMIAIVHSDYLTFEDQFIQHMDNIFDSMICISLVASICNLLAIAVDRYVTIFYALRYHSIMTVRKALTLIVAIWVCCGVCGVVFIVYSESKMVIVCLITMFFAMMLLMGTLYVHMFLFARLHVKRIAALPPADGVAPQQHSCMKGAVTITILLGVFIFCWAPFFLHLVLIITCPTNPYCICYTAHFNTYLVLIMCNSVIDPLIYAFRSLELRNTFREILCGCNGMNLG
Chain of Melanocortin receptor 4 (P32245 whole entry): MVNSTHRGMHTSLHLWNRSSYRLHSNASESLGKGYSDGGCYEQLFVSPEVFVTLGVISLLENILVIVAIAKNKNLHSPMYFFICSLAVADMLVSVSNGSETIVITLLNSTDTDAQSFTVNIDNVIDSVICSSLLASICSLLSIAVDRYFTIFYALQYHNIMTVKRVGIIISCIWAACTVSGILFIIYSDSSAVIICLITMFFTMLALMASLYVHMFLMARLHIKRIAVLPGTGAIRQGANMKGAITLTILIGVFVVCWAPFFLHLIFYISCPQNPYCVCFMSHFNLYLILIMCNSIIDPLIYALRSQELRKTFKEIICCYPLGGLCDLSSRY
Chain of Vasopressin V2 receptor (P30518 whole entry): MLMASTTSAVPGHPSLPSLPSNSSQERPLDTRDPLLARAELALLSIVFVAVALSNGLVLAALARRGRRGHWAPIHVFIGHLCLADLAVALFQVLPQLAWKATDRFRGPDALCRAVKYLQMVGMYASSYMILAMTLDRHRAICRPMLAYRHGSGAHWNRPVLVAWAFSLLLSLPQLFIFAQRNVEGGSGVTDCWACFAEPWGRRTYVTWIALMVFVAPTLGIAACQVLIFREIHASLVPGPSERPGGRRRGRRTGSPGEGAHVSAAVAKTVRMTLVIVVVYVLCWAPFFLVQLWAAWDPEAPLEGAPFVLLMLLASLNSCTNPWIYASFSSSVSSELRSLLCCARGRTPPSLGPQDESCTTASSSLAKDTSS

In the case of `O=C(O)CC(O)(CC(=O)O)C(=O)O` [CITRIC ACID], the AC50 in assay [1] and in assay [2] was over 30 µM each time.

On to `Cc1onc(-c2c(Cl)cccc2Cl)c1C(=O)N[C@@H]1C(=O)N2[C@@H]1SC(C)(C)[C@@H]2C(=O)O` [DICLOXACILLIN], for which the half-maximal activity concentration (AC50) in assay [1] and in assay [2] was over 30 µM throughout.

Take `C[C@H]1O[C@@H](O[C@H]2[C@@H](O)C[C@H](O[C@H]3[C@@H](O)C[C@H](O[C@H]4CC[C@@]5(C)[C@H](CC[C@@H]6[C@@H]5CC[C@]5(C)[C@@H](C7=CC(=O)OC7)CC[C@]65O)C4)O[C@@H]3C)O[C@@H]2C)C[C@H](O)[C@@H]1O` [DIGITOXIN]: the AC50 in [1] and in assay [2] was over 30 µM in each case.

Turning to `OC(CCCN1CCCCC1)(c1ccccc1)c1ccccc1` [DIPHENIDOL], the AC50 in assay [1] and in assay [2] was over 30 µM in each case.

For `CCn1cc(C(=O)O)c(=O)c2cc(F)c(N3CCNCC3)nc21` [ENOXACIN], the AC50 at Adenosine receptor A1 is over 30 µM; in assay [3], over 30 µM; at Vasopressin V2 receptor it was over 30 µM; at Cannabinoid receptor 1, over 10 µM; at D(1A) dopamine receptor it was over 10 µM; on Endothelin-1 receptor, 11.3 µM. In addition, the concentration at half-maximal activity (AC50) was over 10 µM in assay [4]; over 10 µM on Histamine H2 receptor; over 10 µM in assay [5]; over 30 µM in assay [2]; over 30 µM at Melanocortin receptor 3; over 30 µM on Melanocortin receptor 4. Also, the AC50 at Motilin receptor was over 10 µM; in [6], over 10 µM; in [7], over 10 µM; in [8], over 30 µM.

For `C[C@@H](O)[C@H]1C(=O)N2C(C(=O)O)=C([C@H]3CCCO3)S[C@H]12` [FAROPENEM], the AC50 in assay [1] and in [2] was over 30 µM each time.

Consider `COCCOc1cnc(NS(=O)(=O)c2ccccc2)nc1` [GLYMIDINE], for which the half-maximal activity concentration (AC50) in assay [1] and in assay [2] was over 30 µM throughout.

`CC(N)CCCC(C)(C)O` (centres undefined) [HEPTAMINOL]: the concentration at half-maximal activity (AC50) in assay [1] and in assay [2] was over 30 µM in each case.

For the molecule `CCC(=O)O[C@]1(C(=O)COC(C)=O)CC[C@H]2[C@@H]3CCC4=CC(=O)CC[C@]4(C)[C@H]3[C@@H](O)C[C@@]21C` [HYDROCORTISONE ACEPONATE], the AC50 in [1] and in assay [2] was over 30 µM throughout.

In the case of `O=[N+]([O-])O[C@H]1CO[C@H]2[C@@H]1OC[C@H]2O[N+](=O)[O-]` [ISOSORBIDE DINITRATE], the AC50 in [1] and in assay [2] was over 30 µM throughout.

For `Cc1cc(CCN2CCN(c3cccc(Cl)c3)CC2)n[nH]1` [MEPIPRAZOLE], the AC50 in assay [1] and in assay [2] was over 30 µM throughout.

Regarding `CC[N+](C)(CC)CCOC(=O)C1c2ccccc2Oc2ccccc21` [METHANTHELINE], the concentration at half-maximal activity (AC50) in assay [1] and in [2] was over 30 µM throughout.

In the case of `CCOC(=O)[C@H](CCc1ccccc1)N[C@@H](C)C(=O)N1Cc2cc(OC)c(OC)cc2C[C@H]1C(=O)O` [MOEXIPRIL], the AC50 in assay [1] and in assay [2] was over 30 µM in each case.

For the molecule `CC(c1ccc(Cl)c(Cl)c1)N1N=C(N)CC1=O` (centres undefined) [MUZOLIMINE], the AC50 in [1] and in assay [2] was over 30 µM throughout.

Turning to `CCN(CC)CCOC(=O)C(Cc1cccc2ccccc12)CC1CCCO1` (centres undefined) [NAFRONYL], the AC50 in assay [1] and in assay [2] was over 30 µM throughout.

On to `N[C@@H](Cc1c[nH]c2ccc(O)cc12)C(=O)O` [OXITRIPTAN], for which the AC50 in assay [1] and in [2] was over 30 µM in each case.

As for `C1CNCCN1` [PIPERAZINE], the AC50 is over 30 µM in assay [1] and 23.3 µM in assay [2].

`c1cc(CN2CCCNCCNCCCNCC2)ccc1CN1CCCNCCNCCCNCC1` [PLERIXAFOR]: the AC50 in assay [1] and in assay [2] was over 30 µM in each case.

Regarding `CO[C@H]1/C=C/O[C@@]2(C)Oc3c(C)c(O)c4c(O)c(cc(O)c4c3C2=O)NC(=O)/C(C)=C\C=C\[C@H](C)[C@H](O)[C@@H](C)[C@@H](O)[C@@H](C)[C@H](OC(C)=O)[C@@H]1C` [RIFAMYCIN], the AC50 in assay [1] and in [2] was over 30 µM in each case.

`CCCC(=O)O[C@H]1[C@H](C)O[C@@H](O[C@H]2[C@H](N(C)C)[C@@H](O)[C@H](O[C@H]3[C@@H](CC=O)C[C@@H](C)[C@@H](O)/C=C/C=C/C[C@@H](C)OC(=O)C[C@@H](O)[C@@H]3OC)O[C@@H]2C)C[C@@]1(C)OC(=O)CC` [ROKITAMYCIN]: the half-maximal activity concentration (AC50) in assay [1] and in assay [2] was over 30 µM in each case.

Turning to `O=C(Oc1ccccc1C(=O)O)c1ccccc1O` [SALSALATE], the AC50 in assay [1] and in [2] was over 30 µM in each case.

As to `COc1cc([C@@H]2c3cc4c(cc3[C@@H](O[C@@H]3O[C@@H]5CO[C@@H](c6cccs6)O[C@H]5[C@H](O)[C@H]3O)[C@H]3COC(=O)[C@H]23)OCO4)cc(OC)c1O` [TENIPOSIDE], the AC50 in [1] and in assay [2] was over 30 µM in each case.

Turning to `c1ccc2[nH]c(-c3cscn3)nc2c1` [THIABENDAZOLE], the AC50 in assay [1] and in assay [2] was over 30 µM each time.

With `CCSc1ccc2c(c1)N(CCCN1CCN(C)CC1)c1ccccc1S2` [THIETHYLPERAZINE], the AC50 in assay [1] was over 30 µM; in assay [2] it was over 30 µM; at Melanocortin receptor 3, 18 µM; in assay [8], over 30 µM.
